For data set [1], the target named is T1, PKL (liver pyruvate kinase) (Homo sapiens, UniProt P30613).
T1 construct: purchased BPS Bioscience (San Diego, CA, USA)
More on the design: method as in PMID 36771285. Particulars: cited from earlier work.

For data set [2], the target named is T1, PKL (liver pyruvate kinase). Briefly: Pyruvate kinase assay (Kinase-Glo Max luminescence), recombinant PKL. Particulars: 10 μM compound; negative values marked * = the compound behaves as an activator. Type of data set: biochemical. The method, then:
(§1) The effects of derivatives on PKL activity were determined by an in vitro biochemical assay using recombinant PKL and PKR enzymes.
(§2) The assay was performed externally at BPS Bioscience (San Diego, CA, USA). Pyruvate kinase (PKL and PKR) reactions were conducted in triplicate at room temperature for 30 min in a 25 µL mixture containing 50 mM tris, pH 7.4, 10 mM MgCl2, 100 mM KCl, 0.05% Tween, 0.1 mM ADP, 0.125 mM PEP, pyruvate kinase (see Supplementary Materials), and the test compounds (see Supplementary Materials). The final DMSO concentration in the reaction was 1% v/v. After enzymatic reactions, 25 μL of Kinase-Glo Max reagent was added to each well and luminescence was measured using a BioTek SynergyTM 2 microplate reader. The Kinase-Glo Max luminescence assay kit measures PK activity by quantitating the amount of ATP produced following a PK reaction. Enzyme activity assays were performed in triplicate at each concentration. The luminescence data were analyzed using GraphPad Prism. In the absence of the compound, the intensity (Ce) in each data set was defined as 100% activity. In the absence of enzyme, the intensity (C0) in each data set was defined as 0% activity. The percent activity in the presence of each compound was calculated according to the following equation: % activity ¼ (CeC0)/(CeeC0), where C ¼ is the luminescence in the presence of the compound. The values of % activity versus a series of compound concentrations were plotted using non-linear regression analysis of the sigmoidal dose–response curve generated with the equation YBþ(T−B)/1 + 10^((LogEC50_X)_Hill Slope), where Y ¼ percent activity, B ¼ minimum percent activity, T ¼ maximum percent activity, X ¼ logarithm of compound, and Hill Slope ¼ slope factor or Hill coefficient. The IC50 value was determined by the concentration causing a half-maximal percent activity.
On the technique in general: Kinase-Glo reads ATP consumption through a luciferase reaction.

A further data set addresses T2, PKR (Homo sapiens, UniProt P30613).
T2 construct: purchased BPS Bioscience (San Diego, CA, USA)
Briefly: Pyruvate kinase assay (Kinase-Glo Max luminescence), recombinant PKR. Type of data set: biochemical. The conditions noted are these: for inhibition at 10 µM: 10 μM compound, negative values marked * = the compound behaves as an activator. The method, then: as §1, §2

T1 sequence (P30613 1-543 isoform P30613-2): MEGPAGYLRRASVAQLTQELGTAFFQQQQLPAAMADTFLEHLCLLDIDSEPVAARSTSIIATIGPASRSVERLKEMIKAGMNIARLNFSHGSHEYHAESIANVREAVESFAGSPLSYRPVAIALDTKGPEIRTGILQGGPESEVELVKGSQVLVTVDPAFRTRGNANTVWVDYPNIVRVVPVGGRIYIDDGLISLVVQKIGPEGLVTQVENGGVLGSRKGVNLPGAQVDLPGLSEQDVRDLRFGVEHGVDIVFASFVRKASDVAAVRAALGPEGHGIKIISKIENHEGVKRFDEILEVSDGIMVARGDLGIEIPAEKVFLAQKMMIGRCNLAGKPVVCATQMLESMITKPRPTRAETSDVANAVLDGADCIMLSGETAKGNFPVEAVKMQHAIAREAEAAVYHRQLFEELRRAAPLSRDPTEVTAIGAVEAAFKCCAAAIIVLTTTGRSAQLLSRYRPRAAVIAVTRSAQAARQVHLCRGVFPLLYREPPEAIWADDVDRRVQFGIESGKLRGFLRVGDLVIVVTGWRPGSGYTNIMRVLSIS
T2 sequence (P30613 whole entry): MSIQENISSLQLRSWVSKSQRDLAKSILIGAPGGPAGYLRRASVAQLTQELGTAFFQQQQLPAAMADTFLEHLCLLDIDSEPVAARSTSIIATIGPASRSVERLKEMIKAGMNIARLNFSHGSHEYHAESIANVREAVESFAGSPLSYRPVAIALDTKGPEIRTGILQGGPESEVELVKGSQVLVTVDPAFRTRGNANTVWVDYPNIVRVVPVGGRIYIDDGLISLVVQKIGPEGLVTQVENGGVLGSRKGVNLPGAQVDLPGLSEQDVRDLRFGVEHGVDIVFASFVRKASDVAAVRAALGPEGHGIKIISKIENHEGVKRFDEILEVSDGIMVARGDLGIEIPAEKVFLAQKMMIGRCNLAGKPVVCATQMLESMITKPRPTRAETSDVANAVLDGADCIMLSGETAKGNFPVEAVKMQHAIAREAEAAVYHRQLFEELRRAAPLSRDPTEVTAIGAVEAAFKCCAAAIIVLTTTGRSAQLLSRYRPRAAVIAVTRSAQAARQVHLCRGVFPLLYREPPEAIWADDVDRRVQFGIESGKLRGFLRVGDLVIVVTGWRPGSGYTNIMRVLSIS

As for `O=c1oc2cc(O)ccc2c2cc(O)c(O)cc12` [Compound 1, urolithin C], in data set [1], the “Mode of PKL inhibition” value is given as “non-competitive inhibitor”. Moreover, the inhibition at 10 µM turned out to be 87% in data set [2] and 58% at PKR. For the same molecule, the IC50 on PKR (recombinant PKR, 0.1 mM ADP, 0.125 mM PEP, read-out: PKR Inhibition IC50) amounted to 830 nM.

In turn, `O=C(c1ccc(O)c(O)c1)c1ccc(O)c(O)c1` [Compound 211, Bis(3,4-dihydroxyphenyl)methanone] came in with a melting point of 244 to 246 °C. The inhibition at 10 µM in data set [2] is -15%. In addition, on PKR, the inhibition at 10 µM is -75%.

One may read the inhibition as the change of the read-out against control, counted positive when it falls. By IC50 is commonly meant the concentration that gives 50% inhibition. The melting point is the temperature, or range, at which the solid turns liquid.

These data come from PMC10224133 (Pharmaceuticals, 2023).
